# According to patent US6808892B1, “Method for identifying inhibitors of IPC synthase” (AstraZeneca AB, priority 1998, dated 2004):
# *1 amine or outer side, *2 acyl side, *3 side chain or, on linkers, in order; H or OH if unused. Where a SMILES comes first, the peptide text is derived from it. [ ]: non-standard residue; d: D form. X1 = CC[C@@H](C)[C@@H](O[*:1])C(=O)[*:2]; NMeVal(β-OH) = CN[C@H](C(=O)O)C(C)(C)O; NMeF = CN[C@@H](Cc1ccccc1)C(=O)O; aIle = CC[C@@H](C)[C@H](N)C(=O)O; NMeV = CN[C@H](C(=O)O)C(C)C
# Test system: strain lcb1::kanMX, pNS149
# Assay: IPC synthase screen: growth inhibition of the engineered yeast strain with or without added phytosphingosine
# Type: cell-based, S. cerevisiae
# Source text: Therefore in a first aspect of the present invention we provide a screening assay for identifying a selective IPC synthase inhibitor which assay comprises contacting a test compound with engineered cells whose capability to synthesize sphingolipids depends on the addition of exogenous phytosphingosine and which are capable of sustained growth via compensatory phospholipids, adding phytosphingosine, and determining IPC synthase inhibition by the test compound by reference to any cell growth inhibition.
# The utility of the lcb1::kanMX pNS149 strain to identify inhibitors of IPC synthase was evaluated using aureobasidinA as a test compound. The lcb1::kanMX pNS149 strain is a further independent aspect of the invention.
# Inhibition of growth by aureobasidinA in strain lcb1::kanMX, pNS149 with added phytosphingosine.
# Inhibition of growth by aureobasidinA in strain lcb1::kanMX, pNS149 without added phytosphingosine.
smiles,measurement,setting,value
CC[C@@H](C)[C@@H]1NC(=O)[C@@H]2CCCN2C(=O)[C@H](Cc2ccccc2)N(C)C(=O)[C@H](Cc2ccccc2)NC(=O)[C@H](C(C)C)N(C)C(=O)[C@@H]([C@H](C)CC)OC(=O)[C@H](C(C)(C)O)N(C)C(=O)[C@H](CC(C)C)NC(=O)[C@H](C(C)C)N(C)C1=O [aureobasidinA] (cyclo(F[NMeF]P[aIle][NMeV]L[NMeVal(β-OH)][X1][NMeV])),Inhibition of growth,"pNS149, with added phytosphingosine (FIG. 1a)",very pronounced
same,Inhibition of growth,"pNS149, without added phytosphingosine (FIG. 1b)",absent
